Measured values as given in patent US20260240202A1, “MINERAL PROTEINATES FOR USE IN ANIMAL FEEDS, AND METHODS OF MAKING THEREOF” (Cargill, Incorporated, priority 2023, published 2026).
Marks after values point to notes of the source that are not given here.

Test: Chick Zn bioavailability trial: performance and tibia bone measures
Assay type: in vivo, New Hampshire×Columbian male and female chicks
Conditions: for Dry Bone Wt (mg/tibia) / Bone Ash (%) / Bone Ash Wt (mg/tibia) / Tibia Ash Zn Conc. (μg/g of ash): 14 d; for Dry Bone Wt (mg/tibia): right tibia
Procedure: New Hampshire×Columbian male and female chicks from the University of Illinois Poultry Field Laboratory were fed a nutritionally complete corn-soybean meal diet for the first 3 days post-hatching. The chicks were then switched to a Zn-deficient soy concentrate basal diet and fed this diet until 1600 h on D 7 post-hatching. After being subjected to overnight feed withdrawal, chicks were weighed, wing banded and allotted to pens so that each pen has a similar initial weight. Treatment additions were made at the expense of cornstarch. The trial diet can be seen in Table 6.
Five replicate groups of four chicks were fed one of 10 diets for 14 d (Day 8-22 post-hatch). Chicks were maintained in heated stainless-steel batteries and exposed to constant fluorescent light. The dietary treatments are listed below: • 1. Basal soy concentrate diet-Zn deficient (13-14 mg/kg Zn) • 2. As 1+3 mg/kg Zn from feed grade ZnSO4·7H2O • 3. As 1+6 mg/kg Zn from feed grade ZnSO4·7H2O • 4. As 1+9 mg/kg Zn from feed grade ZnSO4·7H2O • 5. As 1+3 mg/kg Zn from Organic Zn prototype MinPro-E75 • 6. As 1+6 mg/kg Zn from Organic Zn prototype MinPro-E75 • 7. As 1+9 mg/kg Zn from Organic Zn prototype MinPro-E75 • 8. As 1+3 mg/kg Zn from Organic Zn prototype MinPro-HSW • 9. As 1+6 mg/kg Zn from Organic Zn prototype MinPro-HSW • 10. As 1+9 mg/kg Zn from Organic Zn prototype MinPro-HSW
Chicks were weighed at the beginning and the end of the trial and weight gain calculated by subtracting the starting weight from the ending weight. Feed intakes were calculated via subtracting the feed refusals from the feed provided, with Zn intakes calculated based on Zn concentration in the diet and total feed consumed. Feed conversions were determined by using the feed consumed divided by weight gained.
Upon termination of the experiment, chicks and feeders were weighed and chicks were euthanized with CO2 gas. The right tibia from each chick was removed and pooled by replicate pen. The tibia was then autoclaved and cleaned to remove all adhering tissue, dried at 110° C. for 24 h, and then dry ashed in a muffle furnace. The ash was analyzed for Zn at the University of Missouri. Bioavailability of Zn was then determined by the slope-ratio method using multiple regression analysis. Weight gain, tibia Zn concentration and total tibia Zn were regressed on supplemental Zn intake from the Zn sources and the bioavailability of the Zn in the Zn-protein sources was calculated relative to the Zn in ZnSO4·7H2O.

Compound: O.O.O.O.O.O.O.O=S(=O)([O-])[O-].[Zn+2] [ZnSO4, ZnSO4·7H2O]
- Dry Bone Wt (mg/tibia) (3 mg/kg supplemental Zn in Zn-deficient basal diet): 1012^e mg/tibia
- Bone Ash (%) (3 mg/kg supplemental Zn): 42.8^bcd %
- Bone Ash Wt (mg/tibia) (3 mg/kg supplemental Zn): 433^de mg/tibia
- Tibia Ash Zn Conc. (μg/g of ash) (3 mg/kg supplemental Zn): 79.16^ef μg/g of ash
- Dry Bone Wt (mg/tibia) (6 mg/kg supplemental Zn in Zn-deficient basal diet): 1104^bdc mg/tibia
- Bone Ash (%) (6 mg/kg supplemental Zn): 43.4^abcd %
- Bone Ash Wt (mg/tibia) (6 mg/kg supplemental Zn): 478^bc mg/tibia
- Tibia Ash Zn Conc. (μg/g of ash) (6 mg/kg supplemental Zn): 88.98^cd μg/g of ash
- Dry Bone Wt (mg/tibia) (9 mg/kg supplemental Zn in Zn-deficient basal diet): 1176^ab mg/tibia
- Bone Ash (%) (9 mg/kg supplemental Zn): 43.8^ab %
- Bone Ash Wt (mg/tibia) (9 mg/kg supplemental Zn): 515^ab mg/tibia
- Tibia Ash Zn Conc. (μg/g of ash) (9 mg/kg supplemental Zn): 101.2^ab μg/g of ash
- Feed efficiency (Zinc inclusion at 3 mg/kg and 6 mg/kg): approximately 560 g/kg of feed consumed
